Measured values as given in patent US11279733B2, “Peptide antibiotics” (priority 2017, dated 2022).
Values after ≈ are worked out from the molar mass of the structure shown. Read-outs that look alike come from different tables or passages of the source. Positions of bridges follow the written chain, without caps; N, C: chain ends. Non-standard residues stand in square brackets, D forms with d. Residues, ends and D or L forms follow the SMILES beside them. *: point of attachment. Decanoyl(3R-OH) = CCCCCCC[C@@H](O)CC(=O)*; dBip = N[C@H](Cc1ccc(-c2ccccc2)cc1)C(=O)O; Igl = N[C@H](C(=O)O)C1Cc2ccccc2C1; d3Pal = N[C@H](Cc1cccnc1)C(=O)O; Tle = CC(C)(C)[C@H](N)C(=O)O; dDab = NCC[C@@H](N)C(=O)O; Octanoyl = CCCCCCCC(=O)*; dDap = NC[C@@H](N)C(=O)O; Dab = NCC[C@H](N)C(=O)O

Legend:
A. baumannii ATCC 19606 = details: ATCC 19606
How it was run: (§1)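 Mid-log cultures grown in Mueller Hinton broth at 37° C were tested by 2-fold broth microdilution at 5×10^5 CFU/mL final. Compounds were dissolved in water and tested over a final range of 32 to 0.015 μg/mL.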

A. baumannii GN_093 PmxR = details: GN 093 PmxR
How it was run: as §1

E. coli ATCC 25922 = details: ATCC 25922
How it was run: as §1

K. pneumoniae ATCC 13883 = details: ATCC 13883
How it was run: as §1

[1] = system: K. pneumoniae ATCC 700603, MDR; details: ATCC 700603
How it was run: as §1

[2] = system: K. pneumoniae ATCC BAA-2146, NDM-1 pos; details: ATCC BAA-2146
How it was run: as §1

[3] = system: K. pneumoniae GN_102 PmxR; details: GN 102 PmxR
How it was run: as §1

[4] = system: K. pneumoniae GN_106, PmxR; details: GN 106, PmxR
How it was run: as §1

P. aeruginosa ATCC 27853 = details: ATCC 27853
How it was run: as §1

[5] = system: P. aeruginosa GN_043, PmxR
How it was run: as §1

[6] = system: P. aeruginosa GN_105, PmxR; details: GN 105, PmxR
How it was run: as §1

[7] = system: S. aureus ATCC 25923, MSSA; details: ATCC 25923
How it was run: as §1

in vitro = details: human
How it was run: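 Viability is measured by resazurin reduction (5 μM, 2 h, 37 °C) after cells seeded at 4000 per well are treated with compound for 24 h.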

SMILES	MIC A. baumannii ATCC 19606 (A. baumannii ATCC 19606)	MIC A. baumannii GN_093 PmxR (A. baumannii GN_093 PmxR)	MIC E. coli ATCC 25922 (E. coli ATCC 25922)	MIC K. pneumoniae ATCC 13883 (K. pneumoniae ATCC 13883)	MIC K. pneumoniae ATCC 700603, MDR [1]	MIC K. pneumoniae ATCC BAA-2146, NDM-1 pos [2]	MIC K. pneumoniae GN_102 PmxR [3]	MIC K. pneumoniae GN_106, PmxR [4]	MIC P. aeruginosa ATCC 27853 (P. aeruginosa ATCC 27853)	MIC P. aeruginosa GN_105, PmxR [6]	MIC S. aureus ATCC 25923, MSSA [7]	CC50 at 24 h (in vitro)	MIC P. aeruginosa GN_043, PmxR ([5]; polymyxin-resistant)	other results
CCCCCCC[C@@H](O)CC(=O)N[C@H](Cc1cccnc1)C(=O)N[C@H]1CCNC(=O)[C@H](CC(C)C)NC(=O)[C@H](CCN)NC(=O)[C@H](CCN)NC(=O)[C@H](Cc2ccccc2)NC(=O)[C@@H](CC(C)C)NC(=O)[C@H](CCN)NC1=O [compound 6430, 3(R)OH-nC9CO-D-3PyPhe-cyc[L-Dab-L-Dab-D-Leu-L-Phe-L-Dab-L-Dab-L-Leu]] ({Decanoyl(3R-OH)}-[d3Pal][Dab][Dab][dL]F[Dab][Dab]L; lactam 2-C)	32 µg/mL (≈ 29.3 µM)	>32 µg/mL	16 µg/mL (≈ 14.6 µM)	16 µg/mL (≈ 14.6 µM)	8 µg/mL (≈ 7.32 µM)	16 µg/mL (≈ 14.6 µM)	8 µg/mL (≈ 7.32 µM)	4 µg/mL (≈ 3.66 µM)	32 µg/mL (≈ 29.3 µM)	32 µg/mL (≈ 29.3 µM)	>32 µg/mL	> 300 µM		MIC P. aeruginosa GN_043, PmxR ([5]; P. aeruginosa GN_043, PmxR): 16 µg/mL (≈ 14.6 µM)
CCCCCCCC(=O)N[C@H](CCN)C(=O)N[C@H]1CCNC(=O)[C@H](Cc2c[nH]c3ccccc23)NC(=O)[C@H](CCN)NC(=O)[C@H](CCN)NC(=O)[C@H](C2Cc3ccccc3C2)NC(=O)[C@@H](Cc2ccccc2)NC(=O)[C@H](CCN)NC1=O [compound 8898, nC7CO-D-Dab-cyc[L-Dab-L-Dab-D-Phe-L-indanylgly-L-Dab-L-Dab-L-Trp]] (Octanoyl-[dDab][Dab][Dab][dF][Igl][Dab][Dab]W; lactam 2-C)	16 µg/mL (≈ 14.1 µM)	16 µg/mL (≈ 14.1 µM)	4 µg/mL (≈ 3.53 µM)	8 µg/mL (≈ 7.06 µM)	4 µg/mL (≈ 3.53 µM)	4 µg/mL (≈ 3.53 µM)	4 µg/mL (≈ 3.53 µM)	8 µg/mL (≈ 7.06 µM)	4 µg/mL (≈ 3.53 µM)	4 µg/mL (≈ 3.53 µM)	4 µg/mL (≈ 3.53 µM)	90 µM	4 µg/mL (≈ 3.53 µM)	
CCCCCCC[C@@H](O)CC(=O)N[C@H](CN)C(=O)N[C@H]1CCNC(=O)[C@H](Cc2c[nH]c3ccccc23)NC(=O)[C@H](CCCNC(=N)N)NC(=O)[C@H](CCCCN)NC(=O)[C@H](C(C)(C)C)NC(=O)[C@@H](Cc2ccc(-c3ccccc3)cc2)NC(=O)[C@H](CCN)NC1=O [compound 8892, 3(R)OH-nC9CO-D-Dap-cyc[L-Dab-L-Dab-D-Bip-L-tert-Leu-L-Lys-L-Arg-L-Trp]] ({Decanoyl(3R-OH)}-[dDap][Dab][Dab][dBip][Tle]KRW; lactam 2-C)	8 µg/mL (≈ 6.33 µM)	8 µg/mL (≈ 6.33 µM)	4 µg/mL (≈ 3.17 µM)	8 µg/mL (≈ 6.33 µM)	4 µg/mL (≈ 3.17 µM)	4 µg/mL (≈ 3.17 µM)	8 µg/mL (≈ 6.33 µM)	8 µg/mL (≈ 6.33 µM)	8 µg/mL (≈ 6.33 µM)	4 µg/mL (≈ 3.17 µM)	4 µg/mL (≈ 3.17 µM)	> 300 µM	4 µg/mL (≈ 3.17 µM)	
CC(=O)N[C@H](CN)C(=O)N[C@H]1CCNC(=O)[C@H](CC(C)C)NC(=O)[C@H](CCN)NC(=O)[C@H](CCN)NC(=O)[C@H](CC(C)C)NC(=O)[C@@H](Cc2ccccc2)NC(=O)[C@H](CCN)NC1=O [compound 8980, Ac-D-Dap-cyc[L-Dab-L-Dab-D-Phe-L-Leu-L-Dab-L-Dab-L-Leu]] (Ac-[dDap][Dab][Dab][dF]L[Dab][Dab]L; lactam 2-C)		>32 µg/mL					>32 µg/mL	>32 µg/mL		>32 µg/mL		> 300 µM		MIC, A. baumannii ATCC 19606 (A. baumannii ATCC 19606): >32 µg/mL; MIC, E. coli ATCC 25922 (E. coli ATCC 25922): >32 µg/mL; MIC, K. pneumoniae ATCC 13883 (K. pneumoniae ATCC 13883): >32 µg/mL; MIC, K. pneumoniae ATCC 700603, MDR [1]: 32 µg/mL (≈ 35.5 µM); MIC, K. pneumoniae ATCC BAA-2146, NDM-1 pos [2]: 32 µg/mL (≈ 35.5 µM); MIC, P. aeruginosa ATCC 27853 (P. aeruginosa ATCC 27853): 4 µg/mL (≈ 4.43 µM); MIC P. aeruginosa GN_043, PmxR ([5]; Table 6, polymyxin-resistant): >32 µg/mL; MIC, S. aureus ATCC 25923, MSSA [7]: >32 µg/mL
